Results taken from patent EP1480941B1, “UREA DERIVATIVES AS HIV ASPARTYL PROTEASE INHIBITORS” (priority 2002, dated 2003).
Where two headings read alike, the source gives them in different places.

Legend:
[1] = system: laboratory viral strain NL4.3; test: Anti-viral assay in vitro (MTT assay on infected MT-4 cells); assay type: cell-based, HIV-1; details: Human immunodeficiency virus 1, MT4, 144 h, infected MT-4 cells incubated six days, average of at least two determinations
From the text: (§1) Anti-viral and cytotoxicity assays in vitro
(§2) We also use some WT clinical strains.

MT-4 = test: Cytotoxicity assay in vitro (MTT assay, virus omitted); assay type: cell-based
From the text: as §1, §2

HIV protease = HIV protease (Human immunodeficiency virus type 1 group M subtype B, UniProt P04585); test: Enzymatic (fluorometric FRET) assay for determining the inhibition constant (Ki); assay type: biochemical; details: EDANS/DABCYL substrate, equation of Henderson
From the text: Enzymatic assay for determining the inhibition constant (Ki) of synthetic compounds targeting the HIV protease
This is a fluorometric assay based on the cleavage by protease of a substrate carrying a donor group (EDANS) and an acceptor group (DABCYL) on each side of the cleavage site, interacting together through fluorescence resonance energy transfer (FRET) as described by Matayoshi et al. (Science 247:[…], 1990).
After calculation of Vo and Vi, the inhibition constant (Ki) of the compound is determined using the equation of Henderson: (Vo)/(Vi) = 1 + ([I])/(Kiapp) Where Ki = (Kiapp)/((1 + [S])/(Km)) [formula] where Vo = the enzyme's initial velocity Vi = the enzyme velocity in the presence of the inhibitory compound, [I] = inhibitor concentration, [S] = substrate concentration, Km = Michaelis-Menten constant and Kiapp = apparent Ki
Graphs are traced and the Ki determined using GraphPad Prism software v. 3.0.

[2] = cell culture IC50, same MTT assay with virus omitted, average of at least two determinations

Row | Compound | EC50 [1] | Ki (HIV protease; Ki) | also measured
1 | Cc1ccc(S(=O)(=O)N(CC(C)C)[C@H](CO)CCCCNC(=O)N(Cc2ccccc2)Cc2ccccc2[N+](=O)[O-])cc1 [Example 59, (2S) 2-N-isobutyl-2-N-(4-methylbenzenesulfonyl)-6-N-[N'-benzyl-N'-(2-nitrobenzyl)aminocarbonyl]-2,6-diaminohexanol] | 385 nM | – | CCIC50 (MT-4; [2]): 4.6 µM
2 | Cc1ccc(S(=O)(=O)N(CC(C)C)[C@H](CO)CCCCNC(=O)N(Cc2ccccc2)Cc2cccc([N+](=O)[O-])c2)cc1 [Example 60, (2S) 2-N-isobutyl-2-N-(4-methylbenzenesulfonyl)-6-N-[N'-benzyl-N'-(3-nitrobenzyl)aminocarbonyl]-2,6-diaminohexanol] | 1800 nM | – | CCIC50 (MT-4; [2]): 4.6 µM
3 | Cc1ccc(S(=O)(=O)N(CC(C)C)[C@H](CO)CCCCNC(=O)N(Cc2ccccc2)Cc2ccc([N+](=O)[O-])cc2)cc1 [Example 61, (2S) 2-N-isobutyl-2-N-(4-methylbenzenesulfonyl)-6-N-[N'-benzyl-N'-(4-nitrobenzyl)aminocarbonyl]-2,6-diaminohexanol] | 3800 nM | – | CCIC50 (MT-4; [2]): 5.1 µM
4 | CC(C)CN([C@H](CO)CCCCNC(=O)N(Cc1ccc(F)cc1)Cc1ccc2c(c1)OCO2)S(=O)(=O)c1ccc(N)cc1 [Example 67, (2S) 2-N-(4-aminobenzenesulfonyl)-2-N-isobutyl-6-N-[N'-(4-fluorobenzyl)-N'-piperonylaminocarbonyl]-2,6-diaminohexanol] | 488 nM | – | CCIC50 (MT-4; [2]): 11 µM
5 | CC(C)CN([C@H](CO)CCCCNC(=O)N(Cc1ccccc1)Cc1ccc2c(c1)OCO2)S(=O)(=O)c1ccc(N)cc1 [Example 82, (2S) 2-N-(4-aminobenzenesulfonyl)-2-N-isobutyl-6-N-(N'-benzyl-N'-piperonylaminocarbonyl)-2,6-diaminohexanol] | 1400 nM | – | CCIC50 (MT-4; [2]): 12.5 µM
6 | CC(C)CN([C@H](CO)CCCCNC(=O)N(Cc1ccc2c(c1)OCO2)Cc1ccc2c(c1)OCO2)S(=O)(=O)c1ccc(N)cc1 [Example 85, (2S) 2-N-(4-aminobenzenesulfonyl)-2-N-isobutyl-6-N-(N',N'-dipiperonylaminocarbonyl)-2,6-diaminohexanol] | 130 nM | – | CCIC50 (MT-4; [2]): 13.1 µM
7 | CC(C)CCN([C@H](CO)CCCCNC(=O)N(Cc1ccccc1)Cc1ccccc1)S(=O)(=O)c1ccc(N)cc1 [Example 86, (2S) 2-N-(4-aminobenzenesulfonyl)-2-N-(3-methylbutyl)-6-N-(N'-N'-dibenzylaminocarbonyl)-2,6-diaminohexanol] | – | 5.8 nM | –
8 | CC(C)CCN([C@H](CO)CCCCNC(=O)N(Cc1ccc2c(c1)OCO2)Cc1cccs1)S(=O)(=O)c1ccc(N)cc1 [Example 87, (2S) 2-N-(4-aminobenzenesulfonyl)-2-N-(3-methylbutyl)-6-N-[N'-(2-thiophenemethyl)-N'-piperonylaminocarbonyl]-2,6-diaminohexanol] | – | 1.4 nM | –
9 | COc1ccc(CN(Cc2ccc3c(c2)OCO3)C(=O)NCCCC[C@@H](CO)N(CCC(C)C)S(=O)(=O)c2ccc(N)cc2)cc1 [Example 88, (2S) 2-N-(4-aminobenzenesulfonyl)-2-N-(3-methylbutyl)-6-N-[N'-(4-methoxybenzyl)-N'-piperonylaminocarbonyl]-2,6-diaminohexanol] | – | 2.9 nM | –
10 | CC(C)CN([C@H](CO)CCCCNC(=O)N(Cc1ccccc1)Cc1cccc2c1OCO2)S(=O)(=O)c1ccc(N)cc1 [Example 91, (2S) 2-N-(4-aminobenzenesulfonyl)-2-N-isobutyl-6-N-[N'-benzyl-N'-(2,3-methylenedioxy)benzylaminocarbonyl]-2,6-diaminohexanol] | – | 5.4 nM | –
11 | CC(C)CN([C@H](CO)CCCCNC(=O)N(Cc1ccccc1)Cc1ccc(F)cc1F)S(=O)(=O)c1ccc(N)cc1 [Example 93, (2S) 2-N-(4-aminobenzenesulfonyl)-2-N-isobutyl-6-N-[N'-benzyl-N'-(2,4-difluorobenzyl)aminocarbonyl]-2,6-diaminohexanol] | – | 12 nM | –
12 | CC(C)CCN([C@H](CO)CCCCNC(=O)N(Cc1ccncc1)Cc1ccc2c(c1)OCO2)S(=O)(=O)c1ccc(N)cc1 [Example 95, (2S) 2-N-(4-aminobenzenesulfonyl)-2-N-(3-methylbutyl)-6-N-[N'-(4-picolyl)-N'-piperonylaminocarbonyl]-2,6-diaminohexanol] | 550 nM | 7.1 nM | CCIC50 (MT-4; human, 6 days): 28.8 µM
13 | CC(C)CCN([C@H](CO)CCCCNC(=O)N(Cc1ccccc1)Cc1cccc2c1OCO2)S(=O)(=O)c1ccc(N)cc1 [Example 96, (2S) 2-N-(4-aminobenzenesulfonyl)-2-N-(3-methylbutyl)-6-N-[N'-benzyl-N'-(2,3-methylenedioxy)benzylaminocarbonyl]-2,6-diaminohexanol] | – | 4 nM | –
14 | CCC(C)CN([C@H](CO)CCCCNC(=O)N(Cc1ccccc1)Cc1ccc2c(c1)OCO2)S(=O)(=O)c1ccc(N)cc1 (stereo partly drawn) [Example 98, (2S) 2-N-(4-aminobenzenesulfonyl)-2-N-(2-methylbutyl)-6-N-[N'-benzyl-N'-piperonylaminocarbonyl]-2,6-diaminohexanol] | – | – | Ki (HIV protease): 13 nM
15 | CCC(C)CN(C(CO)CCCCNC(=O)N(Cc1ccc(OC)cc1)Cc1ccc2c(c1)OCO2)S(=O)(=O)c1ccc(N)cc1 [Example 100, (2S) 2-N-(4-aminobenzenesulfonyl)-2-N-(2-methylbutyl)-6-N-[N'-(4-methoxybenzyl)-N'-piperonylaminocarbonyl]-2,6-diaminohexanol] | – | – | Ki (HIV protease; read-out: Ki): > 300 nM
16 | CC(C)CCN([C@H](CO)CCCCNC(=O)N(Cc1ccccc1)Cc1ccc2c(c1)OCO2)S(=O)(=O)c1ccc(N)cc1 [Example 101, (2S) 2-N-(4-aminobenzenesulfonyl)-2-N-(3-methylbutyl)-6-N-[N'-benzyl-N'-piperonylaminocarbonyl]-2,6-diaminohexanol] | – | 4.1 nM | –
17 | CC(C)CCN([C@H](CO)CCCCNC(=O)N(Cc1ccc(F)cc1)Cc1ccc2c(c1)OCO2)S(=O)(=O)c1ccc(N)cc1 [Example 102, (2S) 2-N-(4-aminobenzenesulfonyl)-2-N-(3-methylbutyl)-6-N-[N'-(4-fluorobenzyl)-N'-piperonylaminocarbonyl]-2,6-diaminohexanol] | 1200 nM | 4.9 nM | CCIC50 (MT-4; human, 6 days): 24.4 µM
18 | CC(C)CCN([C@H](CO)CCCCNC(=O)N(Cc1ccc(F)cc1)Cc1ccc2c(c1)OCCO2)S(=O)(=O)c1ccc(N)cc1 [Example 103, (2S) 2-N-(4-aminobenzenesulfonyl)-2-N-(3-methylbutyl)-6-N-[N'-(4-fluorobenzyl)-N'-(3,4-ethylenedioxy)benzylaminocarbonyl]-2,6-diaminohexanol] | – | 5.4 nM | –
19 | CC(C)CCN([C@H](CO)CCCCNC(=O)N(Cc1ccc2c(c1)OCO2)CC(C)C)S(=O)(=O)c1ccc(N)cc1 [Example 104, (2S) 2-N-(4-aminobenzenesulfonyl)-2-N-(3-methylbutyl)-6-N-(N'-isobutyl-N'-piperonylaminocarbonyl)-2,6-diaminohexanol] | – | 77 nM | –
20 | COc1cccc(CN(Cc2ccc3c(c2)OCO3)C(=S)NCCCC[C@@H](CO)N(CCC(C)C)S(=O)(=O)c2ccc(N)cc2)c1 [Example 105, (2S) 2-N-(4-aminobenzenesulfonyl)-2-N-(3-methylbutyl)-6-N-[N'-(3-methoxybenzyl)-N'-piperonylaminothiocarbonyl]-2,6-diaminohexanol] | – | 2.6 nM | –
21 | COc1ccc(CN(Cc2ccc3c(c2)OCO3)C(=S)NCCCC[C@@H](CO)N(CCC(C)C)S(=O)(=O)c2ccc(N)cc2)cc1OC [Example 106, (2S) 2-N-(4-aminobenzenesulfonyl)-2-N-(3-methylbutyl)-6-N-[N'-(3,4-dimethoxybenzyl)-N'-piperonylaminothiocarbonyl]-2,6-diaminohexanol] | – | 2.9 nM | –
22 | COc1cc(CN(Cc2ccc3c(c2)OCO3)C(=S)NCCCC[C@@H](CO)N(CCC(C)C)S(=O)(=O)c2ccc(N)cc2)cc(OC)c1OC [Example 107, (2S) 2-N-(4-aminobenzenesulfonyl)-2-N-(3-methylbutyl)-6-N-[N'-(3,4,5-trimethoxybenzyl)-N'-piperonylaminothiocarbonyl]-2,6-diaminohexanol] | 680 nM | 4.9 nM | CCIC50 (MT-4; human, 6 days): 10.7 µM
23 | CC(C)CCN([C@H](CO)CCCCNC(=S)N(Cc1ccc(F)cc1)Cc1ccc2c(c1)OCCO2)S(=O)(=O)c1ccc(N)cc1 [Example 108, (2S) 2-N-(4-aminobenzenesulfonyl)-2-N-(3-methylbutyl)-6-N-[N"(4-fluorobenzyl)-N'-(3,4-ethylenedioxy)benzylaminothiocarbonyl]-2,6-diaminohexanol] | – | 9.9 nM | –
24 | COc1ccc(CN(Cc2ccc3c(c2)OCO3)C(=S)NCCCC[C@@H](CO)N(CCC(C)C)S(=O)(=O)c2ccc(N)cc2)cc1 [Example 109, (2S) 2-N-(4-aminobenzenesulfonyl)-2-N-(3-methylbutyl)-6-N-[N'-(4-methoxybenzyl)-N'-piperonylaminothiocarbonyl]-2,6-diaminohexanol] | – | 3.6 nM | –
25 | COc1cccc(CN(Cc2ccc3c(c2)OCO3)C(=O)NCCCC[C@@H](CO)N(CCC(C)C)S(=O)(=O)c2ccc(N)cc2)c1 [Example 110, (2S) 2-N-(4-aminobenzenesulfonyl)-2-N-(3-methylbutyl)-6-N-[N'-(3-methoxybenzyl)-N'-piperonylaminocarbonyl]-2,6-diaminohexanol] | 350 nM | 2.2 nM | –
